PubChem BioAssay (NCI)
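Dose response: 5 concentrations. Exposure: 48 h. Format: 96-well plates. Endpoint: linear interpolation; highest concentration if not reached. GI50: concentration for 50% inhibition of growth. Definition used: TGI = concentration required for complete inhibition of growth.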

How the values were obtained:
Assay in all cases: NCI anticancer screen, dose series, 48 h
[1] = tested on: OVCAR-3 ovarian
[2] = tested on: SNB-19 CNS
[3] = tested on: PC-3 prostate
[4] = tested on: NCI/ADR-RES ovarian
[5] = tested on: KM12 colon
[6] = tested on: OVCAR-4 ovarian
[7] = tested on: HOP-92 NSCLC
[8] = tested on: HOP-62 NSCLC
[9] = tested on: DU-145 prostate
[10] = tested on: K-562 leukemia

`O=C(Nc1ccc(-n2cc(-c3ccncc3)c(-c3ccc(Cl)c(O)c3)n2)cc1)c1cc(Cl)cc(Cl)c1` was tested, and the GI50 [1] was over 100 µM, the TGI [1] was over 100 µM and the GI50 [2] was over 36.2 µM. For the same molecule, the TGI [2] was over 100 µM, the GI50 [3] was 3.87 µM and the TGI [3] was over 100 µM. It also gave a GI50 [4] of 6.1 µM, a TGI [4] of over 100 µM and a GI50 [5] of 2.72 µM. For the same molecule, the TGI [5] was over 29.4 µM, the GI50 [6] was over 94 µM and the TGI [6] was over 100 µM. For the same molecule, the GI50 [7] was 5.57 µM, the TGI [7] was over 100 µM and the GI50 [8] was 2.49 µM. It also gave a TGI [8] of 18.8 µM, a GI50 [9] of over 32.8 µM and a TGI [9] of over 100 µM. The GI50 [10] was 1.11 µM and the TGI [10] was over 100 µM.

With `CS(=O)(=O)c1ccc(C(F)(F)F)cc1NC(=O)Nc1cnc(Oc2ccc(-c3cc(Cl)cnc3N)cc2)nc1` the GI50 [1] was 2.08 µM, the TGI [1] was 4.67 µM and the GI50 [2] was 2.8 µM. It also gave a TGI [2] of 34 µM, a GI50 [3] of 2.05 µM and a TGI [3] of 6.23 µM. It also gave a GI50 [4] of 2.92 µM, a TGI [4] of over 31 µM and a TGI [5] of 3.6 µM. For the same molecule, the GI50 [6] was 2.9 µM, the TGI [6] was 12.4 µM and the GI50 [7] was 1.75 µM. For the same molecule, the TGI [7] was 5.12 µM, the GI50 [8] was 3.27 µM and the TGI [8] was 12.5 µM. The GI50 [9] was 3.21 µM, the TGI [9] was over 54.2 µM and the GI50 [10] was 2.23 µM. It also gave a TGI [10] of 5.51 µM.

Work on `Cc1cc(N2CCN(C)CC2)nc(NC2CCCC(Nc3ccnc4cc(Cl)ccc34)C2)n1` (centres undefined) yielded a GI50 [1] of 2.25 µM, a TGI [1] of 5.75 µM and a GI50 [2] of 3.42 µM. It also gave a TGI [2] of 13.2 µM, a GI50 [3] of 3.35 µM and a TGI [3] of 11.4 µM. It also gave a GI50 [4] of 3.34 µM, a TGI [4] of 13.3 µM and a GI50 [5] of 2.89 µM. For the same molecule, the TGI [5] was 10.1 µM, the GI50 [6] was 1.9 µM and the TGI [6] was 6.24 µM. The GI50 [7] was 1.67 µM, the TGI [7] was 3.49 µM and the GI50 [8] was 2.22 µM. The TGI [8] was 6.03 µM, the GI50 [9] was 3.05 µM and the TGI [9] was 12.7 µM. The GI50 [10] was 0.451 µM and the TGI [10] was 3.92 µM.

With `Nc1cc(C(F)F)c(-c2nc(N3[C@@H]4CC[C@H]3COC4)nc(N3[C@@H]4CC[C@H]3COC4)n2)cn1` the GI50 [1] was 0.435 µM, the TGI [1] was over 100 µM and the GI50 [2] was 0.706 µM. It also gave a TGI [2] of over 100 µM, a GI50 [3] of 0.239 µM and a TGI [3] of over 100 µM. The GI50 [4] was 0.603 µM, the TGI [4] was 39.5 µM and the GI50 [5] was 0.569 µM. For the same molecule, the TGI [5] was over 100 µM, the GI50 [6] was 0.191 µM and the TGI [6] was 2.03 µM. For the same molecule, the GI50 [7] was 0.0688 µM, the TGI [7] was 0.722 µM and the GI50 [8] was 0.161 µM. For the same molecule, the TGI [8] was 2.36 µM, the GI50 [9] was 0.426 µM and the TGI [9] was over 100 µM. The GI50 [10] was 0.673 µM and the TGI [10] was over 100 µM.

`COc1ccc(OC)c(-c2nc3sccn3c2/C=C2/C(=O)Nc3ccccc32)c1` showed a GI50 [1] of 0.235 µM, a TGI [1] of 0.586 µM and a GI50 [2] of 1.72 µM. It also gave a TGI [2] of over 22.7 µM, a GI50 [3] of 0.359 µM and a TGI [3] of 14.2 µM. It also gave a GI50 [4] of 1.42 µM, a TGI [4] of 7.76 µM and a GI50 [5] of 0.119 µM. The TGI [5] was 2.06 µM, the GI50 [6] was 3.01 µM and the TGI [6] was over 38.7 µM. It also gave a GI50 [7] of 0.822 µM, a TGI [7] of 19.1 µM and a GI50 [8] of 0.123 µM. For the same molecule, the TGI [8] was 4.41 µM, the GI50 [9] was 2.1 µM and the TGI [9] was 26.5 µM. For the same molecule, the GI50 [10] was 0.49 µM and the TGI [10] was over 100 µM.

`COc1ccc2[nH]cc(/C=C3\C(=O)Nc4ccccc43)c2c1` showed a GI50 [1] of 9.62 µM, a TGI [1] of 35.9 µM and a GI50 [2] of 8.7 µM. It also gave a TGI [2] of over 100 µM, a GI50 [3] of 5.89 µM and a TGI [3] of 25.8 µM. For the same molecule, the GI50 [4] was 4.97 µM, the TGI [4] was 37 µM and the GI50 [5] was 0.246 µM. The TGI [5] was 13 µM, the GI50 [6] was 6.21 µM and the TGI [6] was 60.3 µM. It also gave a GI50 [7] of 3.84 µM, a TGI [7] of 13.6 µM and a GI50 [8] of 5.18 µM. It also gave a TGI [8] of 19.8 µM, a GI50 [9] of 5.2 µM and a TGI [9] of 22.3 µM. The GI50 [10] was 2.28 µM and the TGI [10] was 9.83 µM.

In the case of `NC(=O)c1c(OCc2c(F)cc(Br)cc2F)nsc1NC(=O)NCCCCN1CCCC1`, the GI50 [1] is reported as 1.81 µM, the TGI [1] is reported as 4.52 µM and the GI50 [2] is reported as 2.27 µM. The TGI [2] was over 10 µM, the GI50 [3] was 3.14 µM and the TGI [3] was over 10 µM. It also gave a GI50 [4] of 5.82 µM, a TGI [4] of over 10 µM and a GI50 [5] of 2.73 µM. The TGI [5] was over 10 µM, the GI50 [6] was over 10 µM and the TGI [6] was over 10 µM. For the same molecule, the GI50 [7] was 0.323 µM, the TGI [7] was over 10 µM and the GI50 [8] was 1.58 µM. It also gave a TGI [8] of over 10 µM, a GI50 [9] of 4.59 µM and a TGI [9] of over 10 µM. For the same molecule, the GI50 [10] was 1.44 µM and the TGI [10] was 5.91 µM.

`COc1cc(/C=C2\C(=O)N(c3c(Cl)cccc3Cl)c3ccccc32)cc(OC)c1O` was tested, and the GI50 [1] was 0.905 µM, the TGI [1] was 7.24 µM and the GI50 [2] was 0.742 µM. For the same molecule, the TGI [2] was 19.3 µM, the GI50 [3] was 1.44 µM and the TGI [3] was 27.1 µM. For the same molecule, the GI50 [4] was 0.793 µM, the TGI [4] was 13.5 µM and the GI50 [5] was 0.654 µM. For the same molecule, the TGI [5] was 2.69 µM, the GI50 [6] was 1.69 µM and the TGI [6] was 12.1 µM. For the same molecule, the GI50 [7] was 1.97 µM, the TGI [7] was 11 µM and the GI50 [8] was 1.23 µM. The TGI [8] was 20.3 µM, the GI50 [9] was 0.663 µM and the TGI [9] was 6.13 µM. For the same molecule, the GI50 [10] was 0.243 µM and the TGI [10] was over 66.6 µM.

Molecule `C=CC1=C(C)C2=NC1=CC1=NC(=C(CC)/C1=C/O)C=C1C=C3C(=O)C(C(=O)OC)C(=C4NC(=C2)C(C)C4CCC(=O)OC/C=C(\C)CCCC(C)CCCC(C)CCCC(C)C)C3=N1` (centres undefined) (tested in a mixture with another compound) has a TGI [1] of over 100 µM, a TGI [2] of over 100 µM and a TGI [3] of over 100 µM. The TGI [4] was over 100 µM, the TGI [5] was over 100 µM and the TGI [6] was over 100 µM. The TGI [7] was over 100 µM, the TGI [8] was over 100 µM and the TGI [9] was over 100 µM. It also gave a TGI [10] of over 100 µM.

`CCOC(=O)C(=Cc1ccc(Br)cc1)C(=O)OCC` was tested, and the GI50 [1] was 1.47 µM, the TGI [1] was 2.92 µM and the GI50 [2] was 2.47 µM. It also gave a TGI [2] of 7.55 µM, a GI50 [3] of 1.86 µM and a TGI [3] of 5.96 µM. It also gave a GI50 [4] of 2.78 µM, a TGI [4] of over 20.4 µM and a GI50 [5] of 1.76 µM. For the same molecule, the TGI [5] was 3.66 µM, the GI50 [6] was 3.06 µM and the TGI [6] was 10.4 µM. The GI50 [7] was 1.45 µM, the TGI [7] was 4.8 µM and the GI50 [8] was 2.78 µM. The TGI [8] was 5.47 µM, the GI50 [9] was 1.68 µM and the TGI [9] was 3.07 µM. The GI50 [10] was 2.49 µM and the TGI [10] was over 100 µM.

In the case of `CSC(=S)NN=C1CCCCC1`, the TGI [1] is reported as over 100 µM, the TGI [2] is reported as over 100 µM and the TGI [3] is reported as over 100 µM. For the same molecule, the TGI [4] was 60.6 µM, the TGI [5] was over 100 µM and the TGI [6] was over 100 µM. It also gave a TGI [7] of over 100 µM, a TGI [8] of over 100 µM and a TGI [9] of over 100 µM. The TGI [10] was 83.2 µM.

Molecule `O=C1C(Nc2ccccn2)=C(I)C(=O)c2ncccc21` has a GI50 [1] of 0.378 µM, a TGI [1] of 1.6 µM and a GI50 [2] of 1.04 µM. It also gave a TGI [2] of 2.24 µM, a GI50 [3] of 1.75 µM and a TGI [3] of 5.12 µM. For the same molecule, the GI50 [4] was 1.25 µM, the TGI [4] was 4.6 µM and the GI50 [5] was 1.65 µM. The TGI [5] was 3.42 µM, the GI50 [6] was 1.07 µM and the TGI [6] was 2.27 µM. The GI50 [7] was 1.65 µM, the TGI [7] was 4.36 µM and the GI50 [8] was 1.12 µM. It also gave a TGI [8] of 2.43 µM, a GI50 [9] of 0.367 µM and a TGI [9] of 1.42 µM. The GI50 [10] was 0.367 µM and the TGI [10] was 4.29 µM.

`C/C=C(/C)C(=O)OC1C=C(CO)C(=O)C(OC(=O)/C(C)=C\C)C1C(C)C` (centres undefined) showed a GI50 [1] of 0.48 µM, a TGI [1] of 1.66 µM and a GI50 [2] of 1.46 µM. The TGI [2] was 2.85 µM, the GI50 [3] was 0.599 µM and the TGI [3] was 1.8 µM. It also gave a GI50 [4] of 1.57 µM, a TGI [4] of 6.11 µM and a GI50 [5] of 1.45 µM. The TGI [5] was 3.02 µM, the GI50 [6] was 1.12 µM and the TGI [6] was 2.49 µM. It also gave a GI50 [7] of 0.528 µM, a TGI [7] of 1.15 µM and a GI50 [8] of 2.03 µM. It also gave a TGI [8] of 3.73 µM, a GI50 [9] of 0.618 µM and a TGI [9] of 1.95 µM. For the same molecule, the GI50 [10] was 0.401 µM and the TGI [10] was 19.2 µM.
